Here are results for 30 compounds from patent US20100075965A1, “PI3 KINASE INHIBITORS AND METHODS OF THEIR USE” (Novartis AG, priority 2006, published 2010).

Experiment [1] addresses PI3 K Alpha (Homo sapiens, UniProt P42336). Nature of the experiment: PI3 kinase phosphorylation assays (homogenous solution phase, one step solid phase, ATP depletion/KinaseGlo). The experiment is classed as biochemical. A general note: In Kinase-Glo more light means more ATP remaining.
Experiment [2] concerns A2780 cells. Nature of the experiment: Viability assay in A2780 (Cell Titer Glo). The experiment is classed as cell-based, human. Particulars: Homo sapiens, A2780 cells, read-out: A2780 Cell prolif. EC50. The method, then:
Cell viability was assessed with Cell Titer Glo assay, Promega. Cells were seeded in TC treated 96-well plates at a density of 1,000 (A2780 cells) per well in DMEM with 10% FBS, 1% Sodium Pyruvate, and 1% Penicillin Streptomycin for a minimum of 2 hrs prior to addition of compound. Test compounds were serially diluted (3 fold) in DMSO to 500× the final concentration. For each concentration of test compound, 2 μL (500×) aliquots of compound or 100% DMSO (control) were diluted in 500 μL of culture medium to 2× final concentration then diluted 1× on the cells. Cells were incubated for 72 hrs at 37° C., 5% CO2. After which Cell Titer Glo is added to determine viable cells, the assay was performed according to the manufacturer's instruction (Promega Corporation, Madison, Wis. USA). Each experimental condition was performed in duplicate. Raw data was imported in Abase and EC50s calculated with XL-fit data analysis software and are shown in Tables 1 and 2 in the column labeled “A2780 Cell prolif. EC50”.

Read-outs that look alike come from different tables or passages of the source.

Sequence of PI3 K Alpha (P42336 whole entry): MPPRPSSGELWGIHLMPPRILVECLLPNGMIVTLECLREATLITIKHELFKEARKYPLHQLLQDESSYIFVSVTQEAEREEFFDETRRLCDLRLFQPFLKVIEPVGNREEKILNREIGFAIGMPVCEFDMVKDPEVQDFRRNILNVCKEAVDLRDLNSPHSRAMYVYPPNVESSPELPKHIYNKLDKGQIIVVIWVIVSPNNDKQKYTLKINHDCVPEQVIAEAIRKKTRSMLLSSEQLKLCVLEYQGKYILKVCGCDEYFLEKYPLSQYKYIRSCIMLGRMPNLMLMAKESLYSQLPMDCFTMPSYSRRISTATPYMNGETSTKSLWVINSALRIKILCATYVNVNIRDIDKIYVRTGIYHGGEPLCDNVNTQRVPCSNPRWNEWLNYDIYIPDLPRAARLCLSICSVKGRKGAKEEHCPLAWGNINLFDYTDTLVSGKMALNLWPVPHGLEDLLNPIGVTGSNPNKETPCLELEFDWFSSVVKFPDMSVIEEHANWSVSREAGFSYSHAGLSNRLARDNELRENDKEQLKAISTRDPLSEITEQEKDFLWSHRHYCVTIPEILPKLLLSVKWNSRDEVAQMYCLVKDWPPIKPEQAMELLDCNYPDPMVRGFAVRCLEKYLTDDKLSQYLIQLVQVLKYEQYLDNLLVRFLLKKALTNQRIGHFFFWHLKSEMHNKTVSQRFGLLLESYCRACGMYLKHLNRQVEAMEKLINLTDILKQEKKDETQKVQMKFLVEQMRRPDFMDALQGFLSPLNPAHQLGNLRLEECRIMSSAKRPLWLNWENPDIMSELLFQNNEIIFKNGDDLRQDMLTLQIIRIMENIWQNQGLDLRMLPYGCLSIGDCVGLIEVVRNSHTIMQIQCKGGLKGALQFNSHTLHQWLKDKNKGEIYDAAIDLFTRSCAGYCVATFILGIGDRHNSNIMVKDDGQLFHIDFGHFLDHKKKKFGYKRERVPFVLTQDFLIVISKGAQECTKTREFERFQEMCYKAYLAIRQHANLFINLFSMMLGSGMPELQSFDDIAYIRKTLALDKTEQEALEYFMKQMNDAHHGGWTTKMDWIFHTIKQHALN
Sequence of PI3 K Alpha (P27986 whole entry partner): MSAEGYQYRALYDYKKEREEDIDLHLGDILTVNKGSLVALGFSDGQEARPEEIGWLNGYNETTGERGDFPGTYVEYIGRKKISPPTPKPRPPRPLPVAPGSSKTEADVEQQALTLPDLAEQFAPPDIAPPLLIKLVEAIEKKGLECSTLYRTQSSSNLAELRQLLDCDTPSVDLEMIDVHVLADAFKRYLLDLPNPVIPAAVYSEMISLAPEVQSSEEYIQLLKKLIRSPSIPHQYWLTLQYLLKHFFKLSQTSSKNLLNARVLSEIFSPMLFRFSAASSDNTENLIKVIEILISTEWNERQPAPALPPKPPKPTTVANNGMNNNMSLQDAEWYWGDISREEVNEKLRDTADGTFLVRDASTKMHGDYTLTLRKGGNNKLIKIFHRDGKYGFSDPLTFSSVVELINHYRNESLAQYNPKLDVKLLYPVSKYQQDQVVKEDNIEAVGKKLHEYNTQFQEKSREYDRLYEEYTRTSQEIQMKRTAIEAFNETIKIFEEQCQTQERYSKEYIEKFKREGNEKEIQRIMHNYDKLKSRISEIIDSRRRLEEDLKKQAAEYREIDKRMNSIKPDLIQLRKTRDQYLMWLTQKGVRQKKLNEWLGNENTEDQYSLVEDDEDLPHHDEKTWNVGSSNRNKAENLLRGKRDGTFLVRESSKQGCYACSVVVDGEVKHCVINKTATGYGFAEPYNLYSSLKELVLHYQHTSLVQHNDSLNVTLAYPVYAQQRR

For the compound `CC(=O)Nc1nc2ccc(-c3cnc(N)c(Br)c3)cn2c1Br` [Example 15, N-[6-(6-Amino-5-bromo-pyridin-3-yl)-3-bromo-imidazo[1,2-a]pyridin-2-yl]-acetamide], in experiment [1] (read-out: PI3K Alpha IC50), the IC50 is less than 1000 nM. For the same compound, in experiment [2], the EC50 was less than 10 µM.

For the compound `C/C=C\c1c(NC(C)=O)nc2ccc(-c3cnc(N)c(C(F)(F)F)c3)cn12` [Example 156, (Z)-N-(6-(6-amino-5-(trifluoromethyl)pyridin-3-yl)-3-(prop-1-enyl)imidazo [1,2-a]pyridin-2-yl)acetamide], in experiment [1] (read-out: PI3K Alpha IC50), the IC50 was less than 1000 nM. The EC50 in experiment [2] is less than 25 µM.

On to `Nc1ncc(-c2ccc3nc(NC(=O)CN4CCCCC4)cn3c2)cc1C(F)(F)F` [Example 198, N-(6-(6-amino-5-(trifluoromethyl)pyridin-3-yl)imidazo[1,2-a]pyridin-2-yl)-2-(piperidin-1-yl)acetamide], for which the IC50 in experiment [1] (read-out: PI3K Alpha IC50) was less than 1000 nM. Further, the EC50 in experiment [2] is less than 10 µM.

For `CC(=O)Nc1cn2cc(-c3cnc(N)c(/C=N/OC(C)(C)C)c3)ccc2n1` [Example 157, (E)-N-(6-(6-amino-5-((tert-butoxyimino)methyl)pyridin-3-yl)imidazo[1,2-a]pyridin-2-yl)acetamide], the IC50 in experiment [1] (read-out: PI3K Alpha IC50) was less than 1000 nM. For the same compound, the concentration for a half-maximal effect (EC50) in experiment [2] was less than 25 µM.

Consider `CN(C)C1CCN(C(=O)Nc2cn3cc(-c4cnc(N)c(C(F)(F)F)c4)ccc3n2)C1` (stereo not drawn) [Example 248, N-(6-(6-amino-5-(trifluoromethyl)pyridin-3-yl)imidazo[1,2-a]pyridin-2-yl)-3-(dimethylamino) pyrrolidine-1-carboxamide], for which, in experiment [1] (read-out: PI3K Alpha IC50), the IC50 was less than 1000 nM. Further, the EC50 in experiment [2] was less than 10 µM.

Regarding `COc1ccccc1-c1cc(-c2ccc3nc(NC(C)=O)cn3n2)cnc1N` [Example 212, N-(6-(6-amino-5-(2-methoxyphenyl)pyridin-3-yl)imidazo[1,2-b]pyridazin-2-yl)acetamide], the IC50 in experiment [1] (read-out: PI3K Alpha IC50) is less than 1000 nM. Moreover, the EC50 in experiment [2] is less than 10 µM.

`CC(C)(C)OC(=O)N1CC(C(=O)Nc2cn3cc(-c4cnc(N)c(C(F)(F)F)c4)ccc3n2)C1` [Example 234, tert-butyl 3-(6-(6-amino-5-(trifluoromethyl)pyridin-3-yl)imidazo[1,2-a]pyridin-2-ylcarbamoyl) azetidine-1-carboxylate]: in experiment [1] (read-out: PI3K Alpha IC50), the IC50 was less than 1000 nM. For the same compound, the EC50 in experiment [2] is less than 10 µM.

As for `COCCOc1nc(-c2ccc3nc(NC(=O)C4CCN4)cn3c2)cnc1N` (stereo not drawn) [Example 153, N-(6-(5-amino-6-(2-methoxyethoxy)pyrazin-2-yl)imidazo[1,2-a]pyridin-2-yl)azetidine-2-carboxamide], the IC50 in experiment [1] (read-out: PI3K Alpha IC50) is less than 1000 nM. Also, the EC50 in experiment [2] was less than 25 µM.

Turning to `C[C@@H](N)C(=O)Nc1cn2nc(-c3cnc(N)c(C(F)(F)F)c3)ccc2n1` [Example 223, (R)-2-amino-N-(6-(6-amino-5-(trifluoromethyl)pyridin-3-yl)imidazo[1,2-b]pyridazin-2-yl)propanamide], the IC50 in experiment [1] (read-out: PI3K Alpha IC50) was less than 1000 nM. In addition, the EC50 in experiment [2] is less than 10 µM.

Regarding `CCC(=O)Nc1cn2cc(-c3cnc(N)c(C(F)(F)F)c3)ccc2n1` [Example 236, N-(6-(6-amino-5-(trifluoromethyl)pyridin-3-yl)imidazo[1,2-a]pyridin-2-yl)propionamide], the IC50 in experiment [1] (read-out: PI3K Alpha IC50) is less than 1000 nM. Moreover, in experiment [2], the EC50 was less than 10 µM.

Turning to `NCCCC(=O)Nc1cn2nc(-c3cnc(N)c(C(F)(F)F)c3)ccc2n1` [Example 137, 4-amino-N-(6-(6-amino-5-(trifluoromethyl)pyridin-3-yl)imidazo[1,2-b]pyridazin-2-yl)butanamide], the IC50 in experiment [1] (read-out: PI3K Alpha IC50) is less than 1000 nM. Besides, the EC50 in experiment [2] is less than 25 µM.

Consider `COCCOc1nc(-c2ccc3nc(NC(=O)C4CCN4C(C)=O)cn3c2)cnc1N` (stereo not drawn) [Example 249, 1-acetyl-N-(6-(5-amino-6-(2-methoxyethoxy)pyrazin-2-yl)imidazo[1,2-a]pyridin-2-yl)azetidine-2-carboxamide], for which the IC50 in experiment [1] (read-out: PI3K Alpha IC50) was less than 1000 nM. Also, in experiment [2], the concentration giving a half-maximal response (EC50) is less than 10 µM.

Consider `CC(C)(C(=O)Nc1cn2cc(-c3cnc(N)c(C(F)(F)F)c3)ccc2n1)c1ccccc1` [Example 44], for which the IC50 in experiment [1] (read-out: PI3K Alpha IC50) is less than 10000 nM. In addition, the EC50 in experiment [2] is less than 25 µM.

As for `CC(=O)Nc1cn2nc(-c3cnc(N)cn3)ccc2n1` [Example 170], in experiment [1] (read-out: PI3K Alpha IC50), the IC50 is less than 1000 nM. The concentration for a half-maximal effect (EC50) in experiment [2] was less than 25 µM.

As for `COc1nc(-c2cc(F)c3nc(NC(C)=O)cn3c2)cnc1N` [Example 145, N-(6-(5-amino-6-methoxypyrazin-2-yl)-8-fluoroimidazo [1,2-a]pyridin-2-yl)acetamide], the IC50 in experiment [1] (read-out: PI3K Alpha IC50) is less than 1000 nM. Also, the EC50 in experiment [2] was less than 25 µM.

For `CC(=O)Nc1cn2cc(-c3cnc(N)c(C(=O)NCCO)n3)ccc2n1` [Example 147, 6-(2-acetamido-imidazo[1,2-a]pyridin-6-yl)-3-amino-N-(2-hydroxyethyl) pyrazine-2-carboxamide], the IC50 in experiment [1] (read-out: PI3K Alpha IC50) is less than 1000 nM. In addition, in experiment [2], the concentration for a half-maximal effect (EC50) is less than 25 µM.

As to `Nc1ncc(-c2ccc3nc(NC(=O)N4CC[C@H]4C(=O)O)cn3c2)cc1C(F)(F)F` [Example 45, (S)-1-(6-(6-amino-5-(trifluoromethyl)pyridin-3-yl)imidazo[1,2-a]pyridin-2-ylcarbamoyl) azetidine-2-carboxylic acid], in experiment [1] (read-out: PI3K Alpha IC50), the IC50 was less than 10000 nM. Moreover, in experiment [2], the EC50 is less than 25 µM.

Regarding `CC(=O)Nc1cn2cc(-c3cnc(N)c(C(=O)NCCNS(C)(=O)=O)n3)ccc2n1` [Example 158, 6-(2-acetamido-imidazo[1,2-a]pyridin-6-yl)-3-amino-N-(2-(methylsulfon amido)ethyl) pyrazine-2-carboxamide], in experiment [1] (read-out: PI3K Alpha IC50), the 50% inhibitory concentration (IC50) is less than 1000 nM. Further, the EC50 in experiment [2] is less than 25 µM.

In the case of `Nc1ncc(-c2ccc3nc(NC(=O)[C@@H]4CCCN4)cn3c2)cc1C(F)(F)F` [Example 38, (S)-N-(6-(6-amino-5-(trifluoromethyl)pyridin-3-yl)imidazo[1,2-a]pyridin-2-yl)pyrrolidine-2-carboxamide], the IC50 in experiment [1] (read-out: PI3K Alpha IC50) is less than 25000 nM. In experiment [2], the EC50 was less than 10 µM.

With `Nc1ccc(C(=O)Nc2nc3ccc(-c4cnc(N)c(C(F)(F)F)c4)cc3s2)cn1` [Example 2-34, 6-amino-N-(6-(6-amino-5-(trifluoromethyl)pyridin-3-yl)benzo[d]thiazol-2-yl)nicotinamide], the IC50 in experiment [1] (ATP depletion assay, read-out: PI3 K Alpha IC50) is less than 1000 nM. For the same compound, the EC50 in experiment [2] (72 hrs) is less than 1 µM.

On to `Nc1ncc(-c2ccc3nc(NC(=O)N4CCCC4C(F)(F)F)cn3c2)cc1C(F)(F)F` (stereo not drawn) [Example 191], for which, in experiment [1] (read-out: PI3K Alpha IC50), the IC50 is less than 1000 nM. For the same compound, the EC50 in experiment [2] is less than 10 µM.

Regarding `CCCc1c(NC(C)=O)nc2ccc(-c3cnc(N)c(C(F)(F)F)c3)cn12` [Example 31, N-[6-(6-Amino-5-trifluoromethyl-pyridin-3-yl)-3-propyl-imidazo[1,2-a]pyridin-2-yl]-acetamide], the IC50 in experiment [1] (read-out: PI3K Alpha IC50) was less than 1000 nM. In experiment [2], the EC50 is less than 25 µM.

`CC(C)(C)OC(=O)N1CCC[C@H]1C(=O)Nc1cn2nc(-c3cnc(N)c(C(F)(F)F)c3)ccc2n1` [Example 166, (S)-tert-butyl 2-(6-(6-amino-5-(trifluoromethyl)pyridin-3-yl)imidazo[1,2-b]pyridazin-2-ylcarbamoyl) pyrrolidine-1-carboxylate]: the IC50 in experiment [1] (read-out: PI3K Alpha IC50) is less than 1000 nM. In experiment [2], the EC50 was less than 25 µM.

Regarding `CCN(CC)Cc1cc(-c2ccc3nc(NC(C)=O)cn3n2)cnc1N` [Example 240, N-(6-(6-amino-5-((diethylamino)methyl)pyridin-3-yl)imidazo[1,2-b]pyridazin-2-yl)acetamide], the IC50 in experiment [1] (read-out: PI3K Alpha IC50) is less than 1000 nM. For the same compound, in experiment [2], the EC50 is less than 10 µM.

In the case of `Nc1ncc(-c2ccc3nc(NC(=O)CCCC(=O)O)cn3n2)cc1C(F)(F)F` [Example 138, 5-(6-(6-amino-5-(trifluoromethyl)pyridin-3-yl)imidazo[1,2-b]pyridazin-2-ylamino)-5-oxopentanoic acid], the IC50 in experiment [1] (read-out: PI3K Alpha IC50) is less than 1000 nM. The EC50 in experiment [2] is less than 25 µM.

As to `NCCC(=O)Nc1cn2nc(-c3cnc(N)c(C(F)(F)F)c3)ccc2n1` [Example 246, 3-amino-N-(6-(6-amino-5-(trifluoromethyl)pyridin-3-yl)imidazo[1,2-b]pyridazin-2-yl)propanamide], the IC50 in experiment [1] (read-out: PI3K Alpha IC50) is less than 1000 nM. Moreover, the EC50 in experiment [2] was less than 10 µM.

In the case of `Nc1ncc(-c2ccc3nc(NC(=O)COC4CCNCC4)cn3c2)cc1C(F)(F)F` [Example 200, N-(6-(6-amino-5-(trifluoromethyl)pyridin-3-yl)imidazo[1,2-a]pyridin-2-yl)-2-(piperidin-4-yloxy)acetamide], the IC50 in experiment [1] (read-out: PI3K Alpha IC50) is less than 1000 nM. The 50% effective concentration (EC50) in experiment [2] is less than 10 µM.

For `Nc1ncc(-c2ccc3nc(NC(=O)c4ccncc4)cn3c2)cc1C(F)(F)F` [Example 163], in experiment [1] (read-out: PI3K Alpha IC50), the IC50 was less than 1000 nM. The EC50 in experiment [2] was less than 25 µM.

For `CN(CC(=O)Nc1cn2nc(-c3cnc(N)c(C(F)(F)F)c3)ccc2n1)C(=O)OC(C)(C)C` [Example 237, tert-butyl 2-(6-(6-amino-5-(trifluoromethyl)pyridin-3-yl)imidazo[1,2-b]pyridazin-2-ylamino)-2-oxoethyl(methyl) carbamate], in experiment [1] (read-out: PI3K Alpha IC50), the IC50 is less than 1000 nM. The EC50 in experiment [2] is less than 10 µM.

`Nc1ncc(-c2ccc3nc(NC(=O)[C@H]4CCCCN4)cn3c2)cc1C(F)(F)F` [Example 216, (R)-N-(6-(6-amino-5-(trifluoromethyl)pyridin-3-yl)imidazo[1,2-a]pyridin-2-yl)piperidine-2-carboxamide]: in experiment [1] (read-out: PI3K Alpha IC50), the IC50 was less than 1000 nM. Moreover, the EC50 in experiment [2] is less than 10 µM.

For orientation: IC50 means the concentration needed to halve the response being measured. Usually EC50 stands for the midpoint of the concentration-response curve.
